# According to US20160244845A1, “METHOD FOR DETERMINING THE PROGNOSIS OF PANCREATIC CANCER” (AB SCIENCE, priority 2013, published 2016):
# Key:
# [1] = tested on: pancreatic cancer patients; conditions: cited from earlier work
# [2] = tested on: pancreatic cancer patients; test: Clinical phase III study AB07012 (ancillary pharmacogenomic study): overall survival of pancreatic cancer patients; conditions: ACOX1 subgroup, DCt cut-off <=3.05; 95% CI [0.10; 0.51]; p-value 0.001
compound,measurement,setting,value
Folfirinox,survival rates after 2 years compared to gemcitabine alone,[1]; pancreatic cancer patients,no benefit
same,median overall survival,"[1]; pancreatic cancer patients, folfirinox: recent phase III study",11.1 months
C#Cc1cccc(Nc2ncnc3cc(OCCOC)c(OCCOC)cc23)c1 [Erlotinib],overall survival (OS) compared to gemcitabine treatment alone,[1]; in combination treatment with gemcitabine,therapeutic benefit
Cc1ccc(NC(=O)c2ccc(CN3CCN(C)CC3)cc2)cc1Nc1nc(-c2cccnc2)cs1 [Masitinib],hazard ratio (masitinib treatment effect with respect to placebo),[2],0.23
